In PubChem BioAssay (NCI):
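In this assay, cells in 96-well plates receive the compound at five concentrations for 48 hours. Endpoints are linearly interpolated between the surrounding concentrations. TGI is the concentration that stops growth completely.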

Legend:
Assay in all cases: inhibition of tumour cell growth, NCI panel, 48 h
SNB-75 CNS = test system: SNB-75 CNS
HL-60(TB) leukemia = test system: HL-60(TB) leukemia
DMS 273 small cell lung = test system: DMS 273 small cell lung
NCI-H226 lung = test system: NCI-H226 lung
HCT-15 colon = test system: HCT-15 colon
DLD-1 colon = test system: DLD-1 colon
OVCAR-8 ovarian = test system: OVCAR-8 ovarian
SN12C renal = test system: SN12C renal
SW-620 colon = test system: SW-620 colon
LXFL 529 NSCLC = test system: LXFL 529 NSCLC
IGROV1 ovarian = test system: IGROV1 ovarian
HCT-116 colon = test system: HCT-116 colon
MALME-3M melanoma = test system: MALME-3M melanoma
SK-MEL-28 melanoma = test system: SK-MEL-28 melanoma
K-562 leukemia = test system: K-562 leukemia
HT29 colon = test system: HT29 colon
SR leukemia = test system: SR leukemia
NCI-H23 lung = test system: NCI-H23 lung
RPMI-8226 leukemia = test system: RPMI-8226 leukemia
NCI-H460 lung = test system: NCI-H460 lung
MOLT-4 leukemia = test system: MOLT-4 leukemia
U251 CNS = test system: U251 CNS
TK-10 renal = test system: TK-10 renal
COLO 205 colon = test system: COLO 205 colon
KM12 colon = test system: KM12 colon
OVCAR-5 ovarian = test system: OVCAR-5 ovarian
OVCAR-4 ovarian = test system: OVCAR-4 ovarian
SF-268 CNS = test system: SF-268 CNS
HOP-62 NSCLC = test system: HOP-62 NSCLC
SNB-78 CNS = test system: SNB-78 CNS
M14 melanoma = test system: M14 melanoma
CAKI-1 renal = test system: CAKI-1 renal
SK-OV-3 ovarian = test system: SK-OV-3 ovarian
UO-31 renal = test system: UO-31 renal
KM20L2 colon = test system: KM20L2 colon
786-0 renal = test system: 786-0 renal
A549 NSCLC = test system: A549 NSCLC
UACC-62 melanoma = test system: UACC-62 melanoma
XF 498 CNS = test system: XF 498 CNS
ACHN renal = test system: ACHN renal
HCC-2998 colon = test system: HCC-2998 colon
LOX IMVI melanoma = test system: LOX IMVI melanoma
SF-539 CNS = test system: SF-539 CNS
HOP-92 NSCLC = test system: HOP-92 NSCLC
SNB-19 CNS = test system: SNB-19 CNS
UACC-257 melanoma = test system: UACC-257 melanoma
SK-MEL-2 melanoma = test system: SK-MEL-2 melanoma
OVCAR-3 ovarian = test system: OVCAR-3 ovarian
SF-295 CNS = test system: SF-295 CNS
NCI-H522 lung = test system: NCI-H522 lung
SK-MEL-5 melanoma = test system: SK-MEL-5 melanoma
RXF 393 renal = test system: RXF 393 renal
MDA-N = test system: MDA-N
A498 renal = test system: A498 renal
PC-3 prostate = test system: PC-3 prostate
T-47D breast = test system: T-47D breast
MDA-MB-231 breast = test system: MDA-MB-231 breast
MDA-MB-435 = test system: MDA-MB-435
DU-145 prostate = test system: DU-145 prostate
CCRF-CEM leukemia = test system: CCRF-CEM leukemia
MCF7 breast = test system: MCF7 breast
NCI/ADR-RES ovarian = test system: NCI/ADR-RES ovarian
HS 578T breast = test system: HS 578T breast
BT-549 breast = test system: BT-549 breast
EKVX NSCLC = test system: EKVX NSCLC

C=CCCC(C)N(C(=O)OC(C)(C)C)S(=O)(=O)c1ccc(C)cc1 (centres undefined)
TGI (SNB-75 CNS): > 100 µM
TGI (HL-60(TB) leukemia): > 100 µM
TGI (DMS 273 small cell lung): > 100 µM
TGI (NCI-H226 lung): > 100 µM
TGI (HCT-15 colon): > 100 µM
TGI (DLD-1 colon): > 100 µM
TGI (OVCAR-8 ovarian): > 100 µM
TGI (SN12C renal): > 100 µM
TGI (SW-620 colon): > 100 µM
TGI (LXFL 529 NSCLC): > 100 µM
TGI (IGROV1 ovarian): > 100 µM
TGI (HCT-116 colon): > 100 µM
TGI (MALME-3M melanoma): > 100 µM
TGI (SK-MEL-28 melanoma): > 100 µM
TGI (K-562 leukemia): > 100 µM
TGI (HT29 colon): > 100 µM
TGI (SR leukemia): > 100 µM
TGI (NCI-H23 lung): > 100 µM
TGI (RPMI-8226 leukemia): > 100 µM
TGI (NCI-H460 lung): > 100 µM
TGI (MOLT-4 leukemia): > 100 µM
TGI (U251 CNS): > 100 µM
TGI (TK-10 renal): > 100 µM
TGI (COLO 205 colon): > 100 µM
TGI (KM12 colon): > 100 µM
TGI (OVCAR-5 ovarian): > 100 µM
TGI (OVCAR-4 ovarian): > 100 µM
TGI (SF-268 CNS): > 100 µM
TGI (HOP-62 NSCLC): > 100 µM
TGI (SNB-78 CNS): > 100 µM
TGI (M14 melanoma): > 100 µM
TGI (CAKI-1 renal): > 100 µM
TGI (SK-OV-3 ovarian): > 100 µM
TGI (UO-31 renal): > 100 µM
TGI (KM20L2 colon): > 100 µM
TGI (786-0 renal): > 100 µM
TGI (A549 NSCLC): > 100 µM
TGI (UACC-62 melanoma): > 100 µM
TGI (XF 498 CNS): > 100 µM
TGI (ACHN renal): > 100 µM
TGI (HCC-2998 colon): > 100 µM
TGI (LOX IMVI melanoma): > 100 µM
TGI (SF-539 CNS): > 100 µM
TGI (HOP-92 NSCLC): > 100 µM
TGI (SNB-19 CNS): > 100 µM
TGI (UACC-257 melanoma): > 100 µM
TGI (SK-MEL-2 melanoma): > 100 µM
TGI (OVCAR-3 ovarian): > 100 µM
TGI (SF-295 CNS): > 100 µM
TGI (NCI-H522 lung): > 100 µM

COC1(OC)C2(Cl)C(Cl)=C(Cl)C1(Cl)C1COCC12 (centres undefined)
TGI (SK-MEL-5 melanoma): > 100 µM
TGI (SNB-75 CNS): > 100 µM
TGI (RXF 393 renal): > 100 µM
TGI (HL-60(TB) leukemia): > 100 µM
TGI (NCI-H226 lung): > 100 µM
TGI (HCT-15 colon): > 100 µM
TGI (OVCAR-8 ovarian): > 100 µM
TGI (MDA-N): > 100 µM
TGI (SN12C renal): > 100 µM
TGI (SW-620 colon): > 100 µM
TGI (IGROV1 ovarian): > 100 µM
TGI (HCT-116 colon): > 100 µM
TGI (MALME-3M melanoma): > 100 µM
TGI (A498 renal): > 100 µM
TGI (PC-3 prostate): > 100 µM
TGI (T-47D breast): > 100 µM
TGI (SK-MEL-28 melanoma): > 55.4 µM
TGI (K-562 leukemia): > 100 µM
TGI (MDA-MB-231 breast): > 100 µM
TGI (HT29 colon): > 100 µM
TGI (SR leukemia): > 100 µM
TGI (MDA-MB-435): > 69.4 µM
TGI (NCI-H23 lung): > 71.2 µM
TGI (RPMI-8226 leukemia): > 100 µM
TGI (DU-145 prostate): > 100 µM
TGI (NCI-H460 lung): > 100 µM
TGI (MOLT-4 leukemia): > 100 µM
TGI (U251 CNS): > 75 µM
TGI (TK-10 renal): > 72.3 µM
TGI (COLO 205 colon): > 100 µM
TGI (CCRF-CEM leukemia): > 100 µM
TGI (KM12 colon): > 100 µM
TGI (OVCAR-5 ovarian): > 100 µM
TGI (OVCAR-4 ovarian): > 100 µM
TGI (SF-268 CNS): > 100 µM
TGI (HOP-62 NSCLC): > 100 µM
TGI (M14 melanoma): > 100 µM
TGI (CAKI-1 renal): > 100 µM
TGI (SK-OV-3 ovarian): > 100 µM
TGI (UO-31 renal): > 100 µM
TGI (786-0 renal): > 100 µM
TGI (MCF7 breast): > 100 µM
TGI (NCI/ADR-RES ovarian): > 100 µM
TGI (A549 NSCLC): > 100 µM
TGI (UACC-62 melanoma): > 100 µM
TGI (HS 578T breast): > 100 µM
TGI (ACHN renal): > 100 µM
TGI (HCC-2998 colon): > 100 µM
TGI (LOX IMVI melanoma): > 100 µM
TGI (SF-539 CNS): > 100 µM
TGI (HOP-92 NSCLC): > 100 µM
TGI (BT-549 breast): > 100 µM
TGI (SNB-19 CNS): > 100 µM
TGI (UACC-257 melanoma): > 100 µM
TGI (SK-MEL-2 melanoma): > 100 µM
TGI (OVCAR-3 ovarian): > 100 µM
TGI (EKVX NSCLC): > 100 µM
TGI (SF-295 CNS): > 100 µM
TGI (NCI-H522 lung): > 100 µM
